Laboratory results published in patent US20260258017A1, “CO-CRYSTAL FORMS OF SELINEXOR” (Karyopharm Therapeutics Inc., priority 2019, published 2026).

What was measured:
[1] = DVS moisture sorption isotherm; format: physicochemical; details: 25° C., 0-90% RH, 10% RH intervals
Procedure: Sorption isotherms are obtained using a TA Instruments Q5000 SA DVS. The sample temperature is maintained at 25° C. by the instrument controls. The humidity is controlled by mixing streams of dry and wet nitrogen, with a total flow rate of 200 ml/min. The relative humidity is measured by a calibrated probe (dynamic range of […]), located near the sample. The weight change, (mass relaxation) of the sample as a function of % RH is constantly monitored by a microbalance (accuracy 0.0001 mg). Typically, 3-10 mg of sample is placed in a tared mesh stainless steel basket under ambient conditions. The sample is loaded and unloaded at 50% RH and 25° C. (typical room conditions). A moisture sorption isotherm is performed as outlined below (2 scans per complete cycle). The standard isotherm is performed at 25° C. at 10% RH intervals over a 0-90% RH range. Typically, a triple cycle is carried out. Data analysis is carried out using TA Instruments Universal Analysis 2000. [table]

[2] = comparison statement for selinexor itself; no medium given; cited from earlier work

DVS water adsorption [1]: does not adsorb water
Compound: O=C(/C=C\n1cnc(-c2cc(C(F)(F)F)cc(C(F)(F)F)c2)n1)NNc1cnccn1 [selinexor, (Z)-3-(3-(3,5-bis(trifluoromethyl)phenyl)-IH-I,2,4-triazol-1-yl)-N′-(pyrazin-2yl)acrylohydrazide]
solubility [2]: low solubility
